Reference: patent US20110082091A1, “Method for Preclinical Testing of Immunomodulatory Drugs” (TheraMAB GmbH, priority 2009, published 2011)
Entries after “also recorded” stand apart in the source; their conditions may differ.

How the values were obtained:
PBMCs [1] = type: cell-based, human
PBMCs [2] = type: cell-based, human; remark: listed apart in the source
human PBMCs [3] = test: PBMC proliferation, 3H-thymidine incorporation; type: cell-based; settings: 3H-thymidine on day 3, 16 hours
Procedure: Fresh and precultured PBMCs were prepared and cultured as described for FIGS. 1 A and B, respectively. On day 3, 1 μCi of 3H-thymidine was added, and cultures were harvested 16 hours later and processed for liquid scintillation counting. Besides cytokine release, polyclonal T-cell activation results in proliferation which can be measured as radioactivity incorporated, here incorporated as tritiated thymidine. […] Thus, proliferation can also be used as a readout.

patients = patients receiving mAb therapy; cited from earlier work
CD4 T-cells in PBMCs = test: Intracellular TNF / IFN-gamma staining of CD4 T-cell subsets (flow cytometry, brefeldin A); type: cell-based, human; settings: mAb 1 μg/ml, 18 hours, brefeldin A last 4 hours; CD45RO+ vs CD45RO- CD4 T-cells
Procedure: 2 day high-density precultured PBMCs were stimulated for 18 hours with 1 μg/ml of OKT3 or of TGN1412. Instead of 18 hours stimulation for a period of time between 15 to 20 hours, preferably 16 to 18 hours, is generally possible. During the last 4 hours of culture, 5 μg/ml of brefeldin A was added to block cellular export of cytokines. After cell-surface staining with fluorochome-conjugated mAb to CD4 and CD45RO (memory marker), cells were fixed, permeabilized and stained with mAb to TNF—left panels—or IFNgamma—right panels—(all from BD Pharmingen, Mountain View, Calif., USA)
15.000 live-gated events were acquired on a BD Calibur flow cytometer and data were analyzed using FlowJo software (Three Star Inc., Ashland, Oreg., USA). The cytokine storm elicited by OKT3 in patients is a well-known phenomenon, and the accompanying information provided with this drug (Muromonomab, Janssen-CILAG) explicitly warns against this syndrome. […] In parallel, the cell surface phenotype of the stimulated PBMCs was determined. The main cytokine-producing T-cell subset, the CD4 T-cells, were thus identified and further subdivided into naive (CD45R0−) and memory (CD45RO+) subsets.

human PBMCs [4] = test: Cytokine release from precultured PBMCs restimulated at 10^6/ml, cytokine bead array; type: cell-based; settings: high-density precultured PBMCs, mAb 1 μg/ml, OKT3 compared with TGN1412
Procedure: For the experiment in FIG. 1B PBMCs from a healthy donor were cultured in 1.5 ml medium for 2 days at 10^7/ml in 24 well flat bottom tissue culture plates before being washed and readjusted to 10^6/ml. With these cells, the same experiment was performed as described in Example 1.
For the experiment of FIG. 3 PBMCs were cultured at 10^6/ml (left bars) or at 10^7/ml (right bars) for 2 days before being stimulated by TGN1412 at 10^6/ml as described in FIG. 1.
For the experiment of FIG. 4 fresh PBMCs (left bars of triplets), and PBMCs precultured at 10^7/ml for 24 (middle bars of triplets) or 48 hours (right bars of triplets) were stimulated with OKT3 or TGN1412 for 24 hours under the conditions given in FIG. 1.
For the experiment of FIG. 5 PBMCs were cultured for two days at high density (10^7/ml, right bars of triplets) or at low density (10^6/ml, left and middle bars of triplets) in 1.5 ml cultures. In the group shown as middle bars of triplets, these low density cultures additionally contained an insert with a semipermeable membrane on which additional PBMCs were cultured at high-density (10^6/ml below membrane, 10^7/ml above membrane, middle bars of triplets).
Cell density. […]
High-density precultured PBMCs were prepared as in FIG. 1B and stimulated with 1 μg/ml of OKT3 or TGN1412. Supernatants were harvested at the times indicated and TNF content was analysed as in FIG. 1.

human PBMCs [5] = test: Cytokine release from freshly isolated PBMCs (standard culture), cytokine bead array; type: cell-based; settings: fresh PBMCs, 10^6/ml, mAb 1 μg/ml, 24 hours
Source text: For the induction of cytokine release, the present invention as well as this comparative example uses a system of PBMC stimulation as described below to study the response of human PBMCs to immune-modulating agents. This system employs freshly prepared PBMCs, isolated from heparinized venous blood by centrifugation over a density gradient (Lymphocyte Separation Medium LSM 1077, PAA Laboratories, Pasching, Germany) following the manufacturer's instructions. […]
In this tissue culture system, freshly isolated PBMCs were stimulated with soluble TGN1412 provided by TheraMab GmbH, Wurzburg. […] After 24 hours, a panel of cytokines including the major pro- and anti-inflammatory factors detected in plasma of the volunteers of the TGN1412 trial (Suntharalingam et al., 2006) were analyzed by the cytokine-bead-array (CBA) technology (Becton Dickinson, Mountain View, Calif., USA) following the manufacturer's instructions. […]
PBMCs from a healthy donor were isolated by Ficoll density centrifugation and cultured in 0.2 ml RPMI1640 medium supplemented with 10% AB serum for 24 hours at 10^6/ml in 96 well flat bottom tissue culture plates. Cytokines in the supernatants were analyzed after 24 hours of incubation by cytokine bead array. […]

phytohemagglutinin [PHA]
proliferative T-cell response (PBMCs [1]): strongly enhanced

Staphylococcal Enterotoxin B
proliferative response (PBMCs [2]): strongly enhances the sensitivity of this assay

concanavalin A [ConA]
proliferative T-cell response (PBMCs [1]): strongly enhanced

OKT3: CD3-specific mAb addressing the T-cell antigen receptor, clinical-grade, Janssen-Cilag
proliferation (human PBMCs [3]; 2 day high-density precultured PBMCs): stimulated the proliferation of both, fresh and precultured PBMCs
proliferation (human PBMCs [3]; fresh PBMCs): stimulated the proliferation of both, fresh and precultured PBMCs
systemic cytokine release (patients): induce the systemic release of proinflammatory cytokines
cellular source of TNF and IFN-gamma production (CD4 T-cells in PBMCs): predominantly in the CD4 memory subset
kinetics of TNF release (human PBMCs [4]): follows the same kinetics
cytokine release (TNF, IFN-gamma, IL-2, IL-10) (human PBMCs [5]): highly effective in inducing TNF, IFN-gamma, and IL-2; also recorded: ability
